Patent publication US6869940B2, “Malignant tumor metastasis inhibitors” (Chugai Seiyaku Kabushiki Kaisha, priority 1995, dated 2005)

Test system: Hara cells derived from human lung cancer
Assay: Bone metastasis model: Hara cells transplanted into the heart of nude mice, preventive effect of OCT
Type: in vivo
Description: Preventive effects of OCT on bone metastases were studied using a bone metastasis model prepared with Hara cells derived from human lung cancer.
A test of preventive effects of OCT on bone metastases of Hara cells was started on the 20th day after 5×10^5 Hara cells were transplanted into the heart of nude mice, at which time the body weight of the animals began to slightly decrease but neither rise in Ca nor clear bone metastasis image on soft X-rays was observed. On that day, the animals were grouped by body weight, and a vehicle (n=9) or 1 μg/kg of OCT (n=9) was orally administered to each animal 4 to 5 times per week for six weeks (29 times in total). At different instants during the administration period, the body weight and Ca level in blood were measured and soft X-ray photographs were taken.

[1] = after 15 doses on the 22nd day after starting the test, 1 μg/kg OCT orally, n=9
[2] = after 20 doses on the 29th day after starting the test, 1 μg/kg OCT orally, n=9
[3] = first day of the test, 1 μg/kg OCT orally, n=9

C=C1/C(=C\C=C2/CCC[C@@]3(C)C2CC[C@@H]3[C@H](C)OCCC(C)(C)O)C[C@@H](O)C[C@@H]1O (stereo partly drawn) [OCT, 22-oxa-1α, 25-dihydroxyvitamin D3]
effect on rise in Ca level in blood (1 μg/kg OCT orally vs vehicle group): tendency to suppress the rise in Ca level in blood | death (1 μg/kg OCT orally, n=9, in the vehicle group four animals died by the 42nd day): no death was observed | effect on body weight decrease (29th day, 1 μg/kg OCT orally vs vehicle group, p<0.05): significantly suppressed body weight decrease | Ca level in blood [1]: 1.37 ± 0.04 mM | body weight [1]: 24.51 ± 1.27 g | Ca level in blood [2]: 1.34 ± 0.16 mM | body weight [2]: 25.00 ± 1.20 g | bone metastasis image on soft X-ray photographs (during the administration period (six weeks), 1 μg/kg OCT orally, n=9, vehicle group: four animals in total): no bone metastasis image was observed | Ca level in blood [3]: 1.32 ± 0.04 mM | body weight [3]: 23.61 ± 1.57 g
